Data published in patent publication US10322133B2, “Synthetic lethal drug combination for treating renal cell carcinoma” (Commissariat a l'Energie Atomique et aux Energies …, priority 2015, dated 2019).

Assays:
[1] = system: 786-O VHL^− cells; assay: Viability assay (PrestoBlue) / high-throughput drug-gene screening; type: cell-based, human; conditions: for sensitivity of cells to ATM inhibitor after shRNA-mediated knockdown of CK2α (cell viability): shCK2α vs shCTRL 786-O cells, 48 h
Experimental: Cytotoxicity was measured using PrestoBlue assay (Invitrogen, Carlsbad, Calif.). Cell lines were seeded in a 96-well microtiter plate at a concentration of 5×10^4 cells/mL. Cells were allowed to attach for 24 hrs at 37° C. and 5% CO2. The cells were exposed to the negative control DMSO or positive drug CX-4945 at 20 μM for 48 h or the other molecules at indicated concentrations. […] DMSO was used as a negative control and 20 μM CX-4945 as a positive control. Plates were further cultured for 48 hrs. Cells were labeled with vital Hoechst (33342) together with Prestoblue and the fluorescence reading was made through the Tecan's Infinite M100 reader. See Flow chart in FIG. 1. Raw data were first imported into the database of the home-made analysis software TAMIS, used for analysis. […] Finally, for each compound X/targeted-shRNA Y pair and assay, the activity percentage obtained with the compound X/Ctrl-shRNA was taken from the compound X/targeted-shRNA Y activity percentage in order to identify compound X/targeted-shRNA Y pair showing additive, or even synergistic, effect compared to compound X/Ctrl-shRNA pair.

[2] = system: 786-O VHL^− cells; assay: 3D assay on Multicellular Tumor Spheroids (Propidium Iodide); type: cell-based, human; conditions: 5 μM, 48 h, P≤0.0001 Kruskal-Wallis
Experimental: For 3-D culture (spheroids), the spheroids were prepared in 96-wells U-bottom tissue culture plate with low evaporation Lid (Microtest™, Becton Dickinson Labware, San Jose, Calif.) coated with 20 mg/mL of poly-HEMA per well to allow the formation of spheroids. Renal cancer cells 786-O WT, 786-O pBABE and 786-O VHL (taken from exponentially growing cultures) were seeded at a density of […] in RPMI supplemented with 10% FCS. 90 μL (9×10^2 cells) of these cell suspensions were deposed in each well then tissue culture plates were incubated at 37° C. and 5% CO2 for 3 days before drug treatment for further 48 h.
Three days pre-formed spheroids were treated with the different drugs at indicated concentrations during 48 H. After that, Hoechst (200 ng/mL) and Propidium Iodide (1 μg/mL) were added as markers of cell nuclei and cell death respectively. Images of IP and Hoechst fluorescence were acquired at the CMBA platform using the automated microscope ArrayScanVTI (ThermoScientific). ArrayScanVTI is a fluorescent microscope which allows the rapid and fully automated acquisition of images of fixed or live cells in 96-well microplates at different magnifications. Dedicated softwares are used to automatically perform High Content image Analysis like spheroid area measurement, fluorescent intensity measurement of each staining and counting of the number of dead cells.

[3] = system: 786-O VHL^− cells; assay: FACS cell cycle analysis (Propidium Iodide); type: cell-based, human; conditions: hypoxic conditions, 48 h
Experimental: FIG. 6: A) FACS analysis of 786-O VHL^− cells treated for 48 h with indicated compounds under hypoxic conditions and labeled with Propidium Iodide for cell cycle analysis.

[4] = molecular target: T1, ATM (Homo sapiens, UniProt Q13315); assay: Western blot of ATM phosphorylation in 786-O cells; type: cell-based; conditions: 786-O VHL^+/−, 1.5% O2, 5 μM, 48 h
T1 construct: endogenous in cells; host or cells: 786-O cells (VHL- and VHL+), cultured under 1.5% O2
T1 sequence (Q13315 whole entry): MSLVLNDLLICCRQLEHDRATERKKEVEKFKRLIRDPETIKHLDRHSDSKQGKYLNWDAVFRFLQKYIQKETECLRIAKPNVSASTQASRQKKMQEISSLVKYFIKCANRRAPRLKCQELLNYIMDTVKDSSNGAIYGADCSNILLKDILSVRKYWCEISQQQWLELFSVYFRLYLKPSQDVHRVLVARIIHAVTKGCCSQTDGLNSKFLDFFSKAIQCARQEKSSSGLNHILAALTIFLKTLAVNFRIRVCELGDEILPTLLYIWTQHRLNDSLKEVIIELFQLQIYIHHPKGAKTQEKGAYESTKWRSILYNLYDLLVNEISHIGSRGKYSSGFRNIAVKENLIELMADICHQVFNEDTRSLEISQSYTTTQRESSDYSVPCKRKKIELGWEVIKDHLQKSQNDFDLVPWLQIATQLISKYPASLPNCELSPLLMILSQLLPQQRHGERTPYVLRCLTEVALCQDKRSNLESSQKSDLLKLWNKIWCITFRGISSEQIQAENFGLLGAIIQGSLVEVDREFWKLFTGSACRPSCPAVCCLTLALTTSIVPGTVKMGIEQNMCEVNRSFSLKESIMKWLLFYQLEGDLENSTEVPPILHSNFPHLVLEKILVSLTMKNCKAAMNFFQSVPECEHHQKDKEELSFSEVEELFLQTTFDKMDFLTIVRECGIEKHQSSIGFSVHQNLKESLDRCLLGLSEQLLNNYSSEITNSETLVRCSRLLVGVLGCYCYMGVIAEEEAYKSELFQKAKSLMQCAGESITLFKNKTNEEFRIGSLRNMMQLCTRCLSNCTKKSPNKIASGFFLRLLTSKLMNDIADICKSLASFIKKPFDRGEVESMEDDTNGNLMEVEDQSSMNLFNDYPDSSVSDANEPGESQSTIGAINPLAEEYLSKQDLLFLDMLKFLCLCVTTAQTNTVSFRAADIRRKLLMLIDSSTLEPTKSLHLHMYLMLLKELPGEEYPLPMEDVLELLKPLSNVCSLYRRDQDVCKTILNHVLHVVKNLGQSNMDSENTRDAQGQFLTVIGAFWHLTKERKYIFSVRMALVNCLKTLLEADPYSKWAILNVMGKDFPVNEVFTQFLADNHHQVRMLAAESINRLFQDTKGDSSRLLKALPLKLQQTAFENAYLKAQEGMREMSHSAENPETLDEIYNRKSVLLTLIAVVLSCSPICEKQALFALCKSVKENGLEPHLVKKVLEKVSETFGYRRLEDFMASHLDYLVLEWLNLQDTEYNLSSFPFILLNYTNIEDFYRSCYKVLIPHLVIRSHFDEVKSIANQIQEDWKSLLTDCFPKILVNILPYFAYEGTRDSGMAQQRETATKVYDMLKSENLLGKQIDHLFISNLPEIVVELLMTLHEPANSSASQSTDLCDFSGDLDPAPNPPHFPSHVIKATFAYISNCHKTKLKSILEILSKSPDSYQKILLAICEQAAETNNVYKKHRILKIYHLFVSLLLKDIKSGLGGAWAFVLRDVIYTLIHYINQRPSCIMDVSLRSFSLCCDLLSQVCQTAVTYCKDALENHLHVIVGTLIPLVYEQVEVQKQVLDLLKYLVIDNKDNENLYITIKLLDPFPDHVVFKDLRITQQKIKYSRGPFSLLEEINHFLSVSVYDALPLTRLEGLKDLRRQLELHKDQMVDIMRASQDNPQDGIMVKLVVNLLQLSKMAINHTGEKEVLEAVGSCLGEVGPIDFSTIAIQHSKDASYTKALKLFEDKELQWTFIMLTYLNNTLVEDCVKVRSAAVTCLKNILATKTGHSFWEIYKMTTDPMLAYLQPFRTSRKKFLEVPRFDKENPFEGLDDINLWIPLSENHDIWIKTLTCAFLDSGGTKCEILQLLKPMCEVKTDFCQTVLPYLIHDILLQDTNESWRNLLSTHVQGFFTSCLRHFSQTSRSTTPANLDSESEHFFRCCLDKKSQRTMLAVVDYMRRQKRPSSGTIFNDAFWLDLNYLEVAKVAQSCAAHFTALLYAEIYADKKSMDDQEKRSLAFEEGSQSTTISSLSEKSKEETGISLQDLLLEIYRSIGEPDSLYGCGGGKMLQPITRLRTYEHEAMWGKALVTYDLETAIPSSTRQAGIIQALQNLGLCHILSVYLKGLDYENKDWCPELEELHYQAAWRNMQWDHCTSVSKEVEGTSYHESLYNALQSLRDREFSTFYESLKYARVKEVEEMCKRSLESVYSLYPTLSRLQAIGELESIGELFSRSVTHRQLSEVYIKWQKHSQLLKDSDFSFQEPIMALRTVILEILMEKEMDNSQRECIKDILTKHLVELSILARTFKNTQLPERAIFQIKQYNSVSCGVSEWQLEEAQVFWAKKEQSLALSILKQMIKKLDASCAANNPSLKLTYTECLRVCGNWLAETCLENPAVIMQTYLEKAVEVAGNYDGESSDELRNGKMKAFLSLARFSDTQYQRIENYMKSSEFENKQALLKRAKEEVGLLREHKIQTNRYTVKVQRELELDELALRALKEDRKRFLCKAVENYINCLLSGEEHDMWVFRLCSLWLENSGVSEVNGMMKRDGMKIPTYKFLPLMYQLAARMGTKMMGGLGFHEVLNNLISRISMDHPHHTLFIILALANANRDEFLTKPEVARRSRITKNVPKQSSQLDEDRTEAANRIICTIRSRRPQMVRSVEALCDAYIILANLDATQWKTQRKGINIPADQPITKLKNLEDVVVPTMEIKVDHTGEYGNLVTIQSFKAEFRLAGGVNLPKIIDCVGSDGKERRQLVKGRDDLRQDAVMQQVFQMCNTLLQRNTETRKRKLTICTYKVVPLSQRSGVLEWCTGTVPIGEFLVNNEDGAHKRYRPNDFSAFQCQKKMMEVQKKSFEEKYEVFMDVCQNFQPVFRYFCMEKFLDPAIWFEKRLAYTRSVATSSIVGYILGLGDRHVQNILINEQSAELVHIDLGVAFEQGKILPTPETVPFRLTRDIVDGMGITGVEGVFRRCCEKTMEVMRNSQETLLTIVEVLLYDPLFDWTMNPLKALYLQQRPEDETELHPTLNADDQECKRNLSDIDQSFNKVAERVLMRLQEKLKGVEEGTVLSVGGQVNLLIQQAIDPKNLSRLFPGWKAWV
Experimental: Blotted membranes were blocked during 1 h at room temperature with saturation buffer (1% BSA in TBST), and then incubated with primary antibody diluted in saturation buffer, during 1 h 30. Secondary antibodies were added for 1 hour.

O=c1cc(-c2cccc3c2Sc2ccccc2S3)oc(N2CCOCC2)c1 [KU-55933, 2-Morpholin-4-yl-6-thianthren-1-yl-pyran-4-one]
sensitivity of cells to ATM inhibitor after shRNA-mediated knockdown of CK2α (cell viability) [1]: enhanced the sensitivity

O=C(O)c1ccc2c(c1)nc(Nc1cccc(Cl)c1)c1ccncc12 [CX-4945, 5-(3-chlorophenylamino)benzo[c][2,6]naphthyridine-8-carboxylic acid]
cell death in shATM MTS versus vehicle [2]: Significant difference
effect on G1 phase [3]: without effect

C[C@@H]1CN(CC(=O)Nc2ccc3c(c2)Cc2cccc(-c4cc(=O)cc(N5CCOCC5)o4)c2S3)C[C@H](C)O1 [KU-60019, 2-((2S,6R)-2,6-dimethylmorpholino)-N-(5-(6-morpholino-4-oxo-4H-pyran-2-yl)-9H-thioxanthen-2-yl)acetamide]
cell death in shCK2α MTS versus vehicle (DMSO) [2]: Significant difference
efficiency of ATM inhibitor compared with KU-55933 ([1]; 786-O cell viability, with CK2 inhibitors (FIG. 2C)): significantly more efficient
sensitivity of cells to ATM inhibitor after shRNA-mediated knockdown of CK2α (cell viability) [1]: enhanced the sensitivity
inhibition of ATM (phosphorylation of P-ATM Ser1981) [4]: clearly inhibited
